biological target: recombinant human GSK-3β (Homo sapiens, UniProt P49841); test: Determination of Inhibition of GSK-3 Activity (phospho-glycogen synthase peptide-2 phosphorylation, [γ-33P]ATP, scintillation counting); assay type: biochemical; settings: group stated as 20 nM<IC50<100 nM; read-out: GSK-3 inhibitor activity values (IC50 values)
Method: The reaction was initiated by adding 25 μL of phospho-glycogen synthase peptide-2 substrate solution [containing 6 μM phospho-glycogen synthase peptide-2, 20 μM ATP, 16 mM MOPS buffer (pH 7.0), 0.2 mM EDTA, 20 mM magnesium acetate, 0.1 μ Ci[γ-^33P]ATP (relative activity: approximately 110 TBq/mmol)] to 5 μL of each test compound using 5% dimethylsulfoxide as a solvent, and further adding 20 μL of GSK-3β enzyme solution [containing 10 mU recombinant human GSK-3β, 20 mM MOPS buffer (pH 7.0), 1 mM EDTA, 0.1% polyoxyethylene lauryl ether(23 Lauryl Ether; Brij 35), 5% glycerol, and 0.1% β-mercaptoethanol. After 20 minutes at room temperature, the reaction was terminated by the addition of the equivalent amount of 200 mM phosphoric acid solution. 90 μL of the reaction product was spotted onto a multiscreen PH plate (manufactured by Millipore) and washed with 100 mM phosphoric acid solution. The plate was dried, and 30 μL of MicroScint-O (manufactured by Packard BioScience) was added thereto. To evaluate inhibitory activity, cpm was counted using a scintillation counter. Here, Phospho GS Peptide 2 is an amino acid peptide having the following sequence: […]P)-Glu-Asp-Glu-Glu-Glu.

Sequence of recombinant human GSK-3β (P49841 whole entry): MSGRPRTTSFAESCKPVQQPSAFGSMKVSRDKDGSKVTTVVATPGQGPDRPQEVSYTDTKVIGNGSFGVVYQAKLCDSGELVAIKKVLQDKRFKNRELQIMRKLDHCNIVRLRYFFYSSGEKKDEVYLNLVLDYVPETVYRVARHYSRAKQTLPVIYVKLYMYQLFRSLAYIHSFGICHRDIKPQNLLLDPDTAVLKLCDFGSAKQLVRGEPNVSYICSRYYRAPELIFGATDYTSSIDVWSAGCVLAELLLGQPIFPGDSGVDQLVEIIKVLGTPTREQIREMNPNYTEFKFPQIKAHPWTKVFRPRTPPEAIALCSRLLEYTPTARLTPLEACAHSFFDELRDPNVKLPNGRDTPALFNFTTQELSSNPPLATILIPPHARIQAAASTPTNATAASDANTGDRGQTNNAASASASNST

SMILES	IC50 [nM]
O=C(NCCn1c(-c2sccc2Cl)c(-c2cccnc2)c2nc[nH]c(=O)c21)Nc1ccccc1 [Compound 793, 1-{2-[6-(3-chloro-thiophen-2-yl)-4-oxo-7-pyridin-3-yl-3-hydropyrrolo[3,2-d]pyrimidin-5-yl]ethyl}-3-phenylurea]	20 to 100
Cc1ccc(CNC(=O)CCCn2c(C3CC3)c(-c3cccnc3)c3nc[nH]c(=O)c32)cc1 [Compound 2331, 4-(6-cyclopropyl-4-oxo-7-(3-pyridyl)(3-hydropyrrolo[3,2-d]pyrimidin-5-yl))-N-[(4-methylphenyl)methyl]butanamide]	20 to 100
Cc1ccc(CNC(=O)CCCn2c(C3CC3)c(-c3cnn(C)c3)c3nc[nH]c(=O)c32)cc1 [Compound 2332, 4-[6-cyclopropyl-7-(1-methylpyrazol-4-yl)-4-oxo-(3-hydropyrrolo[3,2-d]pyrimidin-5-yl)]-N-[(4-methylphenyl)methyl]butanamide]	20 to 100

Results, then the compound that gave them:

IC50 [nM]	SMILES
20 to 100	CC(=O)NCCn1c(-c2sccc2Cl)c(-c2cccnc2)c2nc[nH]c(=O)c21 [Compound 217, N-{2-[6-(3-chloro(2-thienyl))-4-oxo-7-(3-pyridyl)-3-hydropyrrolo[3,2-d]pyrimidin-5-yl]ethyl}acetamide]
20 to 100	CC(C)(C)CC(=O)NCCn1c(-c2sccc2Cl)c(-c2cccnc2)c2nc[nH]c(=O)c21 [Compound 626, N-{2-[6-(3-chloro-thiophen-2-yl)-4-oxo-7-pyridin-3-yl-3-hydropyrrolo[3,2-d]pyrimidin-5-yl]ethyl}-t-butylacetylamide]

same assay, conditions: group stated as IC50<100 nM; read-out: GSK-3 inhibitor activity values (IC50 values)

IC50 [nM]	SMILES
< 100	CC(C)(C)CC(=O)NCCn1c(-c2sccc2Cl)c(-c2cn[nH]c2)c2nc[nH]c(=O)c21 [Compound 629, N-{2-[7-(1H-pyrazol-4-yl)-6-(3-chloro-thiophen-2-yl)-4-oxo-3-hydropyrrolo[3,2-d]pyrimidin-5-yl]ethyl}-t-butylacetylamide]
